Results reported in patent US12723063B2, “GIPR-agonist compounds” (Eli Lilly and Company, priority 2019, dated 2026).
*1 amine or outer side, *2 acyl side, *3 side chain or, on linkers, in order; H or OH if unused. Where a SMILES comes first, the peptide text is derived from it. Side-chain parts run from the residue outwards. [ ]: non-standard residue; d: D form. The star is where a group is joined. C20 diacid = O=C(O)CCCCCCCCCCCCCCCCCCC(=O)*; αMePhe(2-F) = C[C@](N)(Cc1ccccc1F)C(=O)O; γGlu = O=C(O)[C@H](CCC(=O)[*:2])N[*:1]; αMeL = CC(C)C[C@](C)(N)C(=O)O; AEEA = NCCOCCOCC(=O)O; Aib = CC(C)(N)C(=O)O

Molecular target: T1, human GIPR (Homo sapiens, UniProt P48546)
T1 construct: expressed in transfected cells; crude membranes
T1 sequence (P48546 22-466): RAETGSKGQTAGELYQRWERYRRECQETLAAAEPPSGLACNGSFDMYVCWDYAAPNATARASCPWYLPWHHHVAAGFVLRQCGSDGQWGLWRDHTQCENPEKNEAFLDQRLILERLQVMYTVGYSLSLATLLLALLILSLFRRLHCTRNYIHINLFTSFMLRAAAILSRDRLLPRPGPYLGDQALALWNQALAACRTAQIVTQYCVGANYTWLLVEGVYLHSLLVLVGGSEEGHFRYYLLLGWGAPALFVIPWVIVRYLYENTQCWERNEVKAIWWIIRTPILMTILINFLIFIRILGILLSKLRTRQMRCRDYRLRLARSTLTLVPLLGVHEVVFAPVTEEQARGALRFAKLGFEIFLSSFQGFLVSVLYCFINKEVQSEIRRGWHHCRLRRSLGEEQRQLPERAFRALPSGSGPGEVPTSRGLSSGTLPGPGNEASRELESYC
Assay: [125I]-GIP binding, SPA with WGA beads, 0.1% bacitracin
Conditions: geometric mean, read-out: hGIPR Ki
In short: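 Ki values are geometric means (SEM, n independent days), derived from four-parameter nonlinear regression of IC50. Membranes came from hGIPR-expressing CHO cells.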

SMILES	Ki
CC[C@H](C)[C@H](NC(=O)[C@H](Cc1ccccc1)NC(=O)[C@@H](NC(=O)CNC(=O)[C@H](CCC(=O)O)NC(=O)C(C)(C)NC(=O)[C@@H](N)Cc1ccc(O)cc1)[C@@H](C)O)C(=O)N[C@@H](CO)C(=O)N[C@@H](CC(=O)O)C(=O)N[C@@H](Cc1ccc(O)cc1)C(=O)N[C@@H](CO)C(=O)N[C@H](C(=O)N[C@@](C)(CC(C)C)C(=O)N[C@@H](CC(C)C)C(=O)N[C@@H](CC(=O)O)C(=O)N[C@@H](CCCCN)C(=O)N[C@@H](CCCCNC(=O)COCCOCCNC(=O)COCCOCCNC(=O)CC[C@H](NC(=O)CCCCCCCCCCCCCCCCCCC(=O)O)C(=O)O)C(=O)N[C@@H](Cc1c[nH]cn1)C(=O)N[C@@H](CCC(N)=O)C(=O)NC(C)(C)C(=O)N[C@@H](CC(=O)O)C(=O)N[C@@H](Cc1ccccc1)C(=O)N[C@H](C(=O)N[C@@H](CCC(=O)O)C(=O)N[C@@H](Cc1c[nH]c2ccccc12)C(=O)N[C@@H](CC(C)C)C(=O)N[C@@H](CC(C)C)C(=O)N[C@@H](C)C(=O)NCC(=O)NCC(=O)N1CCC[C@H]1C(=O)N[C@@H](CO)C(=O)N[C@@H](CO)C(=O)NCC(=O)N[C@@H](C)C(=O)N1CCC[C@H]1C(=O)N1CCC[C@H]1C(=O)N1CCC[C@H]1C(=O)N[C@@H](CO)C(N)=O)C(C)C)[C@@H](C)CC [Example 54] (H-Y[Aib]EGTFISDYSI[αMeL]LDKK([AEEA-AEEA-γGlu-C20 diacid])HQ[Aib]DFVEWLLAGGPSSGAPPPS-NH2)	0.0326 nM
CC[C@H](C)[C@H](NC(=O)[C@H](CO)NC(=O)[C@H](Cc1ccc(O)cc1)NC(=O)[C@H](CC(=O)O)NC(=O)[C@H](CO)NC(=O)[C@@H](NC(=O)[C@](C)(Cc1ccccc1F)NC(=O)[C@@H](NC(=O)CNC(=O)[C@H](CCC(=O)O)NC(=O)[C@H](C)NC(=O)[C@@H](Cc1ccc(O)cc1)NC(C)=O)[C@@H](C)O)[C@@H](C)CC)C(=O)N[C@@H](C)C(=O)N[C@@H](CC(C)C)C(=O)N[C@@H](CC(=O)O)C(=O)N[C@@H](CCCCN)C(=O)N[C@@H](CCCCNC(=O)COCCOCCNC(=O)COCCOCCNC(=O)CC[C@H](NC(=O)CCCCCCCCCCCCCCCCCCC(=O)O)C(=O)O)C(=O)N[C@@H](Cc1c[nH]cn1)C(=O)N[C@@H](CCC(N)=O)C(=O)NC(C)(C)C(=O)N[C@@H](CCC(=O)O)C(=O)N[C@@H](Cc1ccccc1)C(=O)N[C@H](C(=O)N[C@@H](CC(N)=O)C(=O)N[C@@H](Cc1ccc(O)cc1)C(=O)N[C@@H](CC(C)C)C(=O)N[C@@H](CC(C)C)C(=O)N[C@@H](CCC(=O)O)C(=O)NCC(=O)NCC(=O)N1CCC[C@H]1C(=O)N[C@@H](CO)C(=O)N[C@@H](CO)C(=O)NCC(=O)N[C@@H](C)C(=O)N1CCC[C@H]1C(=O)N1CCC[C@H]1C(=O)N1CCC[C@H]1C(=O)N[C@@H](CO)C(N)=O)C(C)C [Example 33] (Ac-[dY]AEGT[αMePhe(2-F)]ISDYSIALDKK([AEEA-AEEA-γGlu-C20 diacid])HQ[Aib]EFVNYLLEGGPSSGAPPPS-NH2)	0.0369 nM
